{"source": "patent US20070154444A1", "about": "“Extracts from black yeast for whitening skin” (priority 2005, published 2007)", "system": "UV-B induced tan of the skin", "assay": "Whitening action: fading of UV-B induced tan on the backs of volunteer panelists, Minolta Chromameter reflectance", "type": "in vivo, human", "conditions": "FIG. 5; 1% extract or 2% kojic acid in Example 4 composition; 2 mg/cm^2 once a day; nine panelists", "procedure": "A comparative study is done to determine the whitening efficacy of an Exophiala mansonii—derived enzyme extract in comparison to the efficacy of a known tyrosinase inhibitor, kojic acid. More specifically, the study was designed to study the lightening effect of these materials (reduction in tanning) using the fading of UV-B induced tan as a marker. Two samples are prepared. The first sample contains the composition described in Example 4. The second sample has the same composition as that described in Example 4 except that 2% kojic acid is substituted for the 1 % Exophiala mansonii enzyme extract. Nine volunteers participate in the study. […] Tanning is observed for six days after irradiation at which point color measurements are made using a Minolta Chromameter which measures the difference in reflectance of the skin, L. The change in the value of the difference in reflectance, ΔL*, is measured against a baseline skin color value of untreated irradiated skin measured on day 6. […] Chromameter readings are obtained on day 6, 8, 11, 13 and 15. The observed reflectance values for all the time points are recorded, and the area under the curve for each test site was calculated. The Whitening Factor is calculated as the area under the curve of the treated site subtracted from the untreated site, and is shown in FIG. 5."}
{"smiles": "O=c1cc(CO)occ1O", "note": "[kojic acid]", "values": [{"measurement": "Whitening Factor (area under the curve of the treated site subtracted from the untreated site)", "result": 1.8}]}
